Source: patent publication US20070191324A1, “Methods for treatment or prophylaxis of aldosterone-mediated pathogenic effects in a subject using an epoxy-steroidal aldosterone antagonist” (priority 1999, published 2007)

What was measured:
[1] = system: aortas of cholesterol-fed rabbits; assay: Endothelial function in diet induced atherosclerosis, aortic isometric tension and superoxide (Example A-10); assay type: in vivo, New Zealand white rabbits; conditions: 50 mg/kg twice daily by gavage, 6 weeks
Procedure: Methods: New Zealand white rabbits were randomized to four treatment groups. 32 Rabbits were placed on normal (NC) or 1% cholesterol chow (HC) for a duration of 8 weeks. […] Rabbits were euthanized at the end of 8 weeks and the aortas extracted for isometric tension studies and estimation of superoxide (O2^−) generation in vessel segments by lucigenin chemiluminescence (250 μM). Vessels were preconstricted with phenylephrine ([…]) to approximately 50% of peak constriction and dose responses to acetylcholine (Ach) and nitroglycerin (NTG) tested.

[2] = system: older patients with systolic hypertension and/or widened pulse pressure; assay: Eplerenone versus amlodipine in systolic hypertension in older people, 24 weeks (Examples A-19, D-8); assay type: in vivo, human
Text: At Week 10 or thereafter, if SBP is =170 mmHg on two consecutive visits, one to three days apart, and the patient is on the maximum dose of study drug, he/she must be withdrawn. Patients will receive double-blind study medication for a total of 24 weeks. Table A-19A illustrates the above-described dosing scheme.
Heart rate, BP, serum potassium levels, concomitant medications and adverse events will be assessed at each visit. […] Special studies: collagen markers [aminoterminal propeptide of type III procollagen (PIIINP), 7S domain of type IV collagen (7SIVC), and type I collagen telopeptide (ICTP)], plasma […] (PAI-1), tissue plasminogen activator (t-PA), microalbuminuria, and at selected sites, Ambulatory Blood Pressure Monitoring (ABPM) and arterial compliance will be done at Weeks 0, 14, and 24 or at Final Visit. Quality of Life Questionnaires will be done at visit 2A (beginning of single blind) and Weeks 0, 14, and 24 or at Final Visit. DNA genotyping will be performed at baseline.
In older patients, elevated systolic BP and wide pulse pressure predict cardiovascular risk better than diastolic BP. Reduced vascular compliance and intraglomerular hypertension typically accompany isolated systolic hypertension in older people.
Changes in arterial compliance, measured by pulse-wave velocity, microalbuminuria, and adverse effects (AEs) were assessed at baseline and after 24 weeks of therapy.

[3] = system: captopril-treated saline-drinking SHRSP; assay: Angiotensin II-induced renal damage in captopril-treated saline-drinking SHRSP, Protocol 2 (Example A-8); assay type: in vivo, rat (SHRSP/A3N)
Procedure: Animals. Studies were conducted in accordance with institutional guidelines using male SHRSP/A3N (generations F-75 to F-78), n=37, from our local colony. These animals were bred from NIH stock, derived from the SHRSP/A3N substrain described originally by Okamoto and coworkers (Okamoto K et al. Circ. Res. 34 and 35 (suppl I):I-143-I-153.). All animals were housed in a room maintained on a 12:12-h light:dark-cycle and an ambient temperature of 22±1° C. in the Animal Care Facility at New York Medical College. Rats were weaned at 4 weeks of age and allowed free access to Purina Lab Chow 5001 (Ralston Purina, St. Louis, Mo.) and tap water until the initiation of experimental protocols.
SHRSP were placed on Stroke-Prone Rodent Diet (#39-288, Zeigler Bros Inc., Gardners, Pa.) and 1% NaCl drinking solution ad libitum starting at 8.3 weeks of age. […] Animals were handled and weighed daily. Urine samples were collected for the assessment of proteinuria. Systolic blood pressure and heart rate were measured each week. After 2 weeks of treatment, animals were decapitated, trunk blood was collected into chilled EDTA tubes, and the kidneys were removed, blotted dry, and immediately weighed. Coronal sections of kidney were fixed and later processed for light microscopic evaluation.
Assays and Analyses. Systolic blood pressure and heart rate of awake animals were measured by tail-cuff plethysmography using a Natsume KN-210 manometer and tachometer (Peninsula Laboratories Inc., Belmont, Calif.). Rats were warmed at 37° C. for 10 min and allowed to rest quietly in a Lucite chamber before measurement of blood pressure. Measurements of urine volume were made gravimetrically. Urinary protein concentration was determined by the sulfosalicylic acid turbidity method. Plasma aldosterone was measured by radioimmunoassay using ^125I-aldosterone as a tracer (Coat-a Count Aldosterone, Diagnostic Products Co., Los Angeles, Calif.).
Histology. Kidneys were preserved in 10% phosphate-buffered formalin. Coronal sections (2-3 μm) were stained with hematoxylin and eosin and examined by light microscopy in a blinded fashion as previously described (Stier C T et al. J Pharmacol Exp Ther (1992) 260:1410-1415). Glomerular damage was categorized as ischemic or thrombotic. Ischemic lesions were defined as retraction of glomerular capillary tufts with or without appreciable mesangiolysis. Glomerular thrombotic lesions were defined as any one of a combination of the following: segmental to global fibrinoid necrosis, focal thrombosis of glomerular capillaries, swelling and proliferation of intracapillary (endothelial and mesangial) and/or extracapillary cells (crescents), and expansion of reticulated mesangial matrix with or without significant hypercellularity. […] Vascular thrombotic lesions were defined as any one or a combination of the following: mural fibrinoid necrosis, extravasation and fragmentation of red blood cells, and luminal and/or mural thrombosis. Proliferative arteriopathy was characterized by proliferation of markedly swollen myointimal cells with swollen round to ovoid vesicular nuclei surrounded by mucinous extracellular matrix (“onion skinning”) often resulting in nodular thickening. Vascular damage was expressed as the number of arteries and arterioles with lesions per 100 glomeruli. The presence of casts and tubular (ischemic) retraction and simplification was assessed semiquantitatively.
Statistical Analysis. Significant effects with respect to treatment and time were determined by two-way analysis of variance. Data with only one grouping variable were analyzed statistically by Student's unpaired t tests. When more than two groups were compared, one-way analysis of variance was performed followed by the post-hoc Newman-Keul's multiple comparison test. Data were analyzed using version 2.01 of the GraphPad Prism statistical software package (GraphPad Software Inc., San Diego, Calif.). P<0.05 was considered statistically significant.

[4] = after 24 weeks, titration-to-effect
[5] = captopril 50 mg/kg/d, angiotensin II 25 ng/min, eplerenone 100 mg/kg/d, 2 weeks

## COC(=O)[C@@H]1CC2=CC(=O)CC[C@]2(C)[C@@]23O[C@@H]2C[C@@]2(C)[C@@H](CC[C@@]24CCC(=O)O4)[C@H]13 [Eplerenone, Pregn-4-ene-7,21-dicarboxylic acid, 9,11-epoxy-17-hydroxy-3-oxo-, γ-lactone, methyl ester, (7α, 11α, 17β)-]
[1]; 1% cholesterol chow
  ED50 Ach: 68 nM
  ED50 NTG: 10 nM
[1]; normal chow
  ED50 Ach: 32 nM
  ED50 NTG: 5.7 nM
[2]; 24-week study
  Edema rates (%): 3.7%
[2]; 24 weeks
  peripheral edema frequency: 3.7%
  reduction in pulse pressure: −15.9 mmHg
  symptoms with significant and clinically meaningful worsening in distress from Baseline (QoL): no worsening in distress
[2]; 24 weeks, EPL 50-200 mg QD, AML 2.5-10 mg QD
  reduction in SBP: −20.5 mmHg
[2]; [4]
  Pulse Pressure (change): −15.9 ± 0.96 mmHg
  Systolic BP (change): −20.5 ± 1.14 mmHg
[2]; in vivo
  safety and tolerability: safe and well tolerated
[2]; only for patients with baseline microalbuminuria (>30 mg/g), 24 weeks
  Δ microalbuminuria (%): −52.3%
[2]; patients with baseline microalbuminuria (>30 mg/g)
  reduction in UACR: −27.1%
[3]; [5]
  Glomerular damage, Thrombotic: 1.0 ± 0.3 lesions/100 glomeruli
  plasma aldosterone concentration: 231 ± 37 pg/mL
[3]; captopril + angiotensin II 25 ng/min, with eplerenone 100 mg/kg/d or vehicle
  renal damage: 3±1%
